{"source": "patent US20250032430A1", "about": "“USES OF RHODOQUINONE FOR THE TREATMENT OF DISEASE” (Whitehead Institute for Biomedical Research, priority 2021, published 2025)", "key": {"143B cells": {"system": "143B cells", "assay": "Cell proliferation", "assay_type": "cell-based, human", "details": "antimycin, media containing high pyruvate and aspartate; versus wild-type cells", "description": "Proliferation: 25,000 cells were seeded in 6-well dishes and counted on day 1 and day 5 on a Beckman Coulter Counter. Doubling times were calculated using the following equation: […]"}, "[1]": {"system": "liver, kidney, heart, and skeletal muscle", "assay": "Ex vivo O2 consumption of mouse tissues", "description": "Oxygen Consumption Rate (Seahorse): Respiration was measured on intact 143B cells and on mitochondria purified from tissue on the Seahorse XFe-96 Analyzer (Seahorse Bioscience). Cells were incubated in a non-CO2 37° C. incubator in serum-free Seahorse XF RPMI Media (Seahorse Bioscience, Catalog #103336) supplemented with 5 mM glucose, 2 mM glutamine, and 1 mM pyruvate. Oxygen consumption rate (OCR) was measured over a period of 30 minutes. Oxygen consumption rate was also measured on mitochondria purified from mouse tissues. Mitochondria were incubated in MAS buffer (70 mM sucrose, 220 mM mannitol, 10 mM KH2PO4, 5 mM MgCl2, 2 mM HEPES pH 7.2, 1 mM EGTA, 2% BSA) supplemented with 2 mM ADP, 5 mM glutamate, 5 mM malate, 5 mM pyruvate, and 2.5 mM succinate. Oxygen consumption rate (OCR) was measured over a period of 30 minutes."}, "SDH complex": {"system": "SDH complex", "assay": "Ex vivo net direction of the SDH complex in mouse tissues", "details": "ex vivo antimycin treatment of liver, kidney, heart, skeletal muscle", "description": "Ex vivo stable isotope tracing on tissues: Tissues were excised from mice and washed in 1×PBS. Tissues were then cut into small pieces and placed in the appropriate stable isotope tracing media. Stable isotope tracing media contained either ^13C5^15N2-glutamine (Sigma) or 13C4-aspartate (Sigma) dissolved in DMEM, 5% FBS, 1% P/S. For ex vivo tracing experiments performed on the brain, the same media was used without FBS. Tissues were incubated for the designated time at 37° C. in a normal or hypoxia tissue culture incubator. Tissues were removed from the media, washed with PBS, and flash frozen in liquid nitrogen. Samples could be stored at −80° C. until metabolites were isolated.\nIsolation of metabolites from tissues: Tissues were flash frozen and powderized with a mortar and pestle in a liquid nitrogen bath. Approximately 30 mg of tissue powder was transferred into eppendorf tubes and re-suspended in 800 uL ice-cold LC-MS grade 60:40 Methanol:Water (ThermoFisher). Samples were vortexed for 10 minutes at 4° C. […] The top layer was transferred to a new tube, dried down in a speedvac, and subsequently stored at −80° C. until they were analyzed by LC-MS. […] Protein in each sample was quantified using the Pierce BCA Protein Assay Kit (Life Technologies). […]"}}, "data": [{"substance": "antimycin", "values": [{"measurement": "proliferation of SDHB-null cells", "setting": "143B cells", "result": "less than wild-type cells treated with antimycin"}, {"measurement": "O2 consumption", "setting": "[1]", "result": "ablated"}, {"measurement": "net-reversal of the SDH complex", "setting": "SDH complex", "result": "only the liver and kidney maintained net-reversal"}]}]}
